The source of these data is PMC4065339, “Characterization of Family D DNA polymerase from Thermococcus sp. 9°N” (Extremophiles, 2014).

For assay [1], the target named is T1, polB (9°Nm DNA polymerase; 9°N/E143D) (Thermococcus sp. 9oN-7, UniProt Q56366, E143D).
T1 construct: gene pol; commercial recombinant 9°Nm DNA polymerase (New England Biolabs), E143D variant in exonuclease domain; single subunit
T1 sequence (Q56366 1-775 E143D): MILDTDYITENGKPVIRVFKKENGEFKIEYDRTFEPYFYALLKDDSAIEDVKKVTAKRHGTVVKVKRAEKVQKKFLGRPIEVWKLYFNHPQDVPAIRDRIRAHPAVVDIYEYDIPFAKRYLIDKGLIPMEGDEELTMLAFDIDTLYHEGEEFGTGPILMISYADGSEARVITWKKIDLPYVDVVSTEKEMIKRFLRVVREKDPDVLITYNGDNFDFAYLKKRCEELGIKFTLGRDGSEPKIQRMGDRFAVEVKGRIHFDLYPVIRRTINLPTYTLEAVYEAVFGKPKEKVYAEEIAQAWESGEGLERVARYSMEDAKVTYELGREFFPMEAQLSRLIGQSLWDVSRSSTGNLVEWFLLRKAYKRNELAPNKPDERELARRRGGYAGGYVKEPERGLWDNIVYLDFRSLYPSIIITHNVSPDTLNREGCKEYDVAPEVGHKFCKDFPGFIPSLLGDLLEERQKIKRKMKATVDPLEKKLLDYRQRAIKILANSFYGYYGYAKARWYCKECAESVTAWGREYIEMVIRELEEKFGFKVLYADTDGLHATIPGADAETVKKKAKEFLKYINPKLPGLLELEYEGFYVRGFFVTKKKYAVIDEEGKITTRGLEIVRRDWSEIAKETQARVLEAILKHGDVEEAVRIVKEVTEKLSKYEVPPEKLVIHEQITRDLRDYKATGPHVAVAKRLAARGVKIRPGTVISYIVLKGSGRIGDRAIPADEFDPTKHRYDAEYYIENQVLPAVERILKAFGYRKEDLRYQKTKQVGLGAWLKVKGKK
Nature of the assay: [α-32P]-dCTP incorporation into primed M13mp18, acid precipitation. In kind it is biochemical.

Assay [2] concerns T2, polD (heterodimer of polD-S and polD-L).
T2 construct: gene polC; E. coli T7 Express/pRIL, untagged, co-expressed plasmids pERE1 and pERF5, co-purified heterodimer; with DNA polymerase II small subunit
Described as above. The format is biochemical, Thermococcus sp. 9°N. The note with it: 10 nM enzyme, 15 nM primed M13mp18, 50 µM dNTPs, ThermoPol buffer pH 8.8 (2 mM MgSO4), 65 °C, 20 min; read-out: not inhibited by up to 0.4 mM.

In the case of `C[C@@]1(CO)[C@H](O)CC[C@@]2(C)[C@H]1CC[C@H]1C[C@@H]3C[C@@]12CC[C@]3(O)CO` [aphidicolin], the figures for the IC50 in assay [1] and in assay [2] were 300 µM and > 400 µM, respectively.
